In paper PMC3748599 (Environmental science & technology, 2013):
Like-named read-outs stand apart in the source and are kept apart here.

Legend:
rat liver microsomes [1] = assay: Enantioselective analysis; format: in vitro ADME; conditions: for enantiomeric fraction (EF) of metabolite, range: range over microsomal preparations; for enantiomeric enrichment of the parent compound: racemic substrate
rat liver microsomes [2] = conditions: for parent compound detected at end of incubation (% of initial amount): 30 min; for HEPOXB formed (% of the HEPTA added): substrate HEPTA
[3] = cited from earlier work
CYP3A = conditions: liver microsomes of pretreated male rats; cited from earlier work
CYP1A = conditions: liver microsomes of pretreated male rats; cited from earlier work
CYP2B = conditions: liver microsomes of pretreated male rats; cited from earlier work
[4] = formed from cis- and trans-chlordane
[5] = substrate racemic C-CHLORD, microsomes from PB-pretreated rats
[6] = microsomes from DX-pretreated rats
[7] = microsomes from PB-pretreated rats
[8] = microsomes from VH-pretreated rats
[9] = microsomes from DX- and VH-pretreated rats

ClC1=C(Cl)[C@]2(Cl)[C@H]3[C@H]([C@H](Cl)[C@]4(Cl)O[C@H]34)[C@@]1(Cl)C2(Cl)Cl [OXY, oxychlordane]
enantiomeric fraction (EF) of metabolite, range (rat liver microsomes [1]; [4]): 0.45-0.89 | enantiomeric enrichment of metabolite (rat liver microsomes [1]; [5]): (+)-OXY was enriched | enantiomeric enrichment of metabolite (rat liver microsomes [1]; substrate racemic T-CHLORD, microsomes from DX-pretreated rats): (-)-OXY was slightly enriched | enantiomeric enrichment of metabolite (rat liver microsomes [1]; substrate racemic T-CHLORD, microsomes from PB-pretreated rats): Enrichment of (+)-OXY | OXY formed (% of the total C-CHLORD added) (rat liver microsomes [2]; substrate C-CHLORD, microsomes from PB-pretreated rats): approximately 2% | OXY levels formed, PB versus DX microsomes (rat liver microsomes [2]; substrate T-CHLORD, PB- versus DX-pretreated rats): 9 times | enantiomeric enrichment in vivo ([3]; female rats treated for 28 days with trans-nonachlor or T-CHLORD): enrichment of (+)-OXY | enantiomeric enrichment in vivo ([3]; male rats, all time-points investigated): (-)-OXY was enriched

ClC1=C(Cl)[C@]2(Cl)[C@H]3[C@H](Cl)[C@@H](Cl)C[C@H]3[C@@]1(Cl)C2(Cl)Cl (relative stereo) [T-CHLORD, trans-chlordane]
enantiomeric enrichment of the parent compound (rat liver microsomes [1]; [6]): slight enrichment of (-)-T-CHLORD | enantiomeric enrichment of the parent compound (rat liver microsomes [1]; [7]): (-)-T-CHLORD was highly enriched | enantiomeric enrichment of the parent compound (rat liver microsomes [1]; [8]): No enantiomeric enrichment | parent compound detected at end of incubation (% of initial amount) (rat liver microsomes [2]; [6]): 80% | parent compound detected at end of incubation (% of initial amount) (rat liver microsomes [2]; [7]): 32% | parent compound detected at end of incubation (% of initial amount) (rat liver microsomes [2]; [8]): 94% | enantiomeric enrichment in tissues ([3]; rats treated with T-CHLORD): (-)-T-CHLORD is enriched

ClC1=C(Cl)C2(Cl)[C@H]3C[C@H](Cl)[C@H](Cl)[C@H]3C1(Cl)C2(Cl)Cl (stereo partly drawn) [C-CHLORD, cis-Chlordane]
enantiomeric enrichment of the parent compound (rat liver microsomes [1]; [6]): did not reach statistical significance | enantiomeric enrichment of the parent compound (rat liver microsomes [1]; [7]): (-)-C-CHLORD was only modestly enriched | enantiomeric enrichment of the parent compound (rat liver microsomes [1]; [8]): (-)-C-CHLORD was only modestly enriched | change of parent compound levels in incubation (rat liver microsomes [2]; [9]): no statistically significant change | change of parent compound levels in incubation (rat liver microsomes [2]; [7]): clearly decreased

ClC1=C(Cl)C2(Cl)C3C(Cl)C=CC3C1(Cl)C2(Cl)Cl (stereo not drawn) [HEPTA, Heptachlor]
formation as metabolite from both chlordane isomers (rat liver microsomes [2]; microsomal incubations with T-CHLORD and C-CHLORD): not detected | change of parent compound levels in incubation (rat liver microsomes [2]; [9]): significant decrease | change of parent compound levels in incubation (rat liver microsomes [2]; [7]): significant decrease | parent compound detected at end of incubation (% of initial amount) (rat liver microsomes [2]; [7]): 6%

ClC1=C(Cl)[C@]2(Cl)[C@@H]3[C@@H](Cl)[C@@H]4O[C@@H]4[C@@H]3[C@@]1(Cl)C2(Cl)Cl (single isomer, unassigned; isomer a) [HEPOXA, heptachlor epoxide isomer A]
formation as metabolite from HEPTA (rat liver microsomes [2]; all three rat liver microsomal preparations): not to HEPOXA

ClC1=CC2C(C1Cl)C1(Cl)C(Cl)=C(Cl)C2(Cl)C1(Cl)Cl (stereo not drawn) [DCC, 1,2-dichlorochlordene]
enantiomeric fraction (EF) of metabolite, range (rat liver microsomes [1]; [4]): 0.42-0.90 | enantiomeric enrichment of metabolite (rat liver microsomes [1]; substrate racemic C-CHLORD, microsomes from DX-pretreated rats): clear enrichment of E1-DCC | enantiomeric enrichment of metabolite (rat liver microsomes [1]; [5]): enrichment of E2-DCC | enantiomeric enrichment of metabolite (rat liver microsomes [1]; substrate racemic C-CHLORD, microsomes from VH-pretreated rats): clear enrichment of E1-DCC

ClC1=C(Cl)[C@]2(Cl)[C@@H]3[C@@H](Cl)[C@H]4O[C@H]4[C@@H]3[C@@]1(Cl)C2(Cl)Cl (single isomer, unassigned; isomer b) [HEPOXB, heptachlor epoxide isomer B]
enantiomeric fraction (EF) of metabolite, range (rat liver microsomes [1]; formed from heptachlor): 0.44-0.54 | enantiomeric enrichment of metabolite (rat liver microsomes [1]; substrate racemic HEPTA, microsomes from DX-pretreated rats): enrichment of (-)-HEPOXB | enantiomeric enrichment of metabolite (rat liver microsomes [1]; substrate racemic HEPTA, microsomes from PB-pretreated rats): slight but significant enrichment of (+)-HEPOXB | enantiomeric enrichment of metabolite (rat liver microsomes [1]; substrate racemic HEPTA, microsomes from VH-pretreated rats): enrichment of (-)-HEPOXB | HEPOXB formed (% of the HEPTA added) (rat liver microsomes [2]; [6]): 47% | HEPOXB formed (% of the HEPTA added) (rat liver microsomes [2]; [7]): 82% | HEPOXB formed (% of the HEPTA added) (rat liver microsomes [2]; [8]): 33%

CCC1(c2ccccc2)C(=O)NC(=O)NC1=O [PB, phenobarbital]
CYP3A activity relative to microsomes from VH-pretreated animals (CYP3A): 2 times | CYP1A activity relative to microsomes from VH-pretreated animals (CYP1A): 4 times | CYP2B activity relative to microsomes from VH-pretreated animals (CYP2B): 96 times
